Data: patent EP1435231B1, “Non-pegylated long-circulating liposomes” (Bharat Serums & Vaccines Ltd., priority 2002, dated 2004)

What was measured:
[1] = Pharmacokinetic study of doxorubicin formulations in mice (plasma, HPLC); design: species or system Swiss albino mice; details: mouse, in vivo, 10 mg/kg
Experimental: Blood samples after collection were centrifuged at 4000 rpm for 20 min and the plasma was separated and frozen at -20°C until analysed. The frozen plasma was thawed and used for analysis.
1ml of acetonitrile was added to 100 µL of plasma, vortexed for 10 min, centrifuged at 3250 rpm for 10 min. The supernatant was withdrawn and 0.5ml of saturated ZnSO4 solution was added to it. The resulting solution was vortexed for 5 min and then centrifuged for 10 min at 3250 rpm. The upper organic layer was then withdrawn and dried under oxygen free nitrogen gas at 60°C. The residue obtained was then reconstituted with 200µL of Solvent A containing ZnSO4. 100 µL of this solution was then injected in the HPLC column.
Student's t-test was used for comparison between the three formulations.

[2] = test system: drug resistant (Pgp+) DLD-1 human colon tumour; assay: Efficacy in nude athymic mice implanted with multidrug resistant, Pgp positive DLD-1 tumour xenografts; details: mouse, in vivo
Experimental: Animals, nude athymic mice, 4 mice/group (10 in Control group) implanted subcutaneously with human DLD-1 colon tumour via trocar implant.
All agents were administered to nude athymic mice i.v. via tail vein on day 5 and 12 after s.c. tumour implant with the multidrug resistant, Pgp positive, human colon tumour xenograft.

[3] = test system: Dogs; assay: Subacute toxicity in dogs; details: dog, in vivo
Source text: • clinical signs of toxicity, • body weight, • haemodynamic parameters, • haematology and • biochemical parameters TABLE 7

## Adriamycin^®
[1]
  Cl: 200.96 mL/h
  Kel: 4.852
[2]
  MTD relative to that of the liposomal formulations: about half
[3]
  Liver Function Test: aspartate aminotranferase, alanine aminotranferase and total bilirubin levels: Increase
  creatinine phosphokinase and lactate dehydrogenase levels: Increase
[3]; 1 mg/kg
  Body weight: decrease in the bodyweight
  Haemodynamic Parameters: Heart rate: Increases by average + 29.17%
  Haemodynamic Parameters: Respiratory rate: Decreases by average -42.12%
